Measurements reported in PubChem BioAssay (NCI).
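In this assay, cells in 96-well plates receive the compound at five concentrations for 48 hours. Endpoints are linearly interpolated between the surrounding concentrations. GI50 marks 50% less growth. At the TGI there is no net growth.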

Assays:
Experiment in all cases: NCI tumour cell line growth inhibition, 48 h
[1] = system: ACHN renal
[2] = system: EKVX NSCLC
[3] = system: HOP-62 NSCLC
[4] = system: LOX IMVI melanoma
[5] = system: OVCAR-3 ovarian
[6] = system: OVCAR-4 ovarian
[7] = system: SK-MEL-5 melanoma
[8] = system: SN12C renal
[9] = system: SNB-19 CNS
[10] = system: SW-620 colon
[11] = system: UACC-62 melanoma
[12] = system: RPMI-8226 leukemia

| Structure (SMILES) | TGI [1] | TGI [2] | TGI [3] | TGI [4] | TGI [5] | TGI [6] | TGI [7] | TGI [8] | TGI [9] | TGI [10] | TGI [11] | TGI [12] | GI50 [1] | GI50 [2] | GI50 [6] | GI50 [12] | GI50 [7] | GI50 [8] | GI50 [9] | GI50 [11] |
| --- | --- | --- | --- | --- | --- | --- | --- | --- | --- | --- | --- | --- | --- | --- | --- | --- | --- | --- | --- | --- |
| CN(C)CC1CCCCCCCCCCCCC(CN(C)C)C1=O (stereo not given) | 29.9 µM | 37.3 µM | 30.3 µM | 21.3 µM | 30.7 µM | 29.4 µM | 27.8 µM | 29.4 µM | 31.6 µM | 20.6 µM | 26.1 µM | – | – | – | – | – | – | – | – | – |
| O=C(Cc1ccccc1)NN1C(=O)C(Cl)C1c1cccc([N+](=O)[O-])c1 (stereo not given) | > 100 µM | > 100 µM | > 100 µM | – | > 86.8 µM | > 92.9 µM | > 100 µM | > 100 µM | > 100 µM | > 89.1 µM | > 100 µM | 47.8 µM | – | – | – | – | – | – | – | – |
| CCc1ccc(Nc2cc(=O)n(C)c(SCc3ccccc3)n2)cc1 | > 100 µM | > 100 µM | > 100 µM | > 100 µM | > 100 µM | – | > 100 µM | 42.8 µM | > 100 µM | > 100 µM | > 100 µM | – | – | – | – | – | – | – | – | – |
| S=C(Nc1ccc2c(c1)oc1ccccc12)c1cccs1 | > 100 µM | > 100 µM | > 100 µM | > 100 µM | > 100 µM | > 100 µM | > 100 µM | > 100 µM | > 100 µM | > 100 µM | > 100 µM | – | – | – | – | – | – | – | – | – |
| c1ccc2nn(C3CCCO3)nc2c1 (stereo not given) | – | > 100 µM | > 100 µM | – | > 100 µM | > 100 µM | > 100 µM | > 100 µM | – | – | > 100 µM | – | – | – | – | – | – | – | – | – |
| CCOC(=O)C1=CNC(C(=O)OCC)C1c1cccn1-c1ccccc1 (stereo not given) | > 100 µM | > 100 µM | > 100 µM | 31 µM | > 100 µM | > 100 µM | 31.5 µM | > 100 µM | – | > 100 µM | > 100 µM | – | – | – | – | – | – | – | – | – |
| CC1CCC2CC1NC(=O)CCOCCC(=O)NC2(C)C (stereo not given) | – | > 100 µM | > 100 µM | > 100 µM | > 100 µM | > 100 µM | > 100 µM | > 100 µM | > 100 µM | > 100 µM | > 100 µM | – | – | – | – | – | – | – | – | – |
| CC(Cc1cccc2c1Nc1ccccc1S2)N(C)CCO (stereo not given) | > 100 µM | > 100 µM | > 100 µM | > 100 µM | > 100 µM | > 100 µM | > 100 µM | > 100 µM | > 100 µM | > 100 µM | > 100 µM | – | – | – | – | – | – | – | – | – |
| C/C(=N\O)C1CC2C=C(C#N)C1N(Cc1ccccc1)C2 (stereo not given) | > 100 µM | > 100 µM | > 100 µM | > 100 µM | > 100 µM | – | > 100 µM | > 100 µM | > 100 µM | > 100 µM | > 100 µM | > 100 µM | – | – | – | – | – | – | – | – |
| Cc1ccc(SCC(CF)OC(C)n2cnc3c(Cl)nc(N)nc32)cc1 (stereo not given) | > 100 µM | – | > 100 µM | > 100 µM | > 100 µM | 52.6 µM | 53.7 µM | > 100 µM | > 100 µM | > 100 µM | > 100 µM | > 100 µM | – | – | – | – | – | – | – | – |
| CCCCCCCCCC/C=C/C=O | > 100 µM | > 100 µM | – | > 100 µM | > 100 µM | – | > 100 µM | > 100 µM | > 100 µM | > 100 µM | > 100 µM | – | – | – | – | – | – | – | – | – |
| COC(=O)[C@]1(C)CCC[C@]2(C)[C@@H](CCC(=O)C(C)C)[C@]3(C=O)O[C@@H]3C[C@H]21 | 57.3 µM | > 100 µM | – | 92.3 µM | > 100 µM | 87.3 µM | > 100 µM | > 100 µM | > 100 µM | > 100 µM | > 100 µM | – | – | – | – | – | – | – | – | – |
| COc1cc(/C=C/C(=O)c2ccc(F)cc2)ccc1OCCCCCOc1cc2c(cc1OC)C(=O)N1CCCC1C=N2 (stereo not given) | 0.368 µM | 0.601 µM | – | – | – | > 100 µM | 0.23 µM | 2.37 µM | 3.35 µM | – | 0.222 µM | 0.0383 µM | 0.0197 µM | 0.151 µM | 0.0265 µM | 0.0101 µM | 0.0896 µM | 0.0335 µM | < 0.0223 µM | 0.0582 µM |
| O=C(Oc1c(Br)cc(Br)cc1C(=O)Oc1ccccc1)C(=O)Oc1c(Br)cc(Br)cc1C(=O)Oc1ccccc1 | > 100 µM | > 100 µM | 45.1 µM | – | 66.2 µM | – | 31 µM | 97.4 µM | 64.8 µM | 51.1 µM | > 100 µM | 52.9 µM | – | – | – | – | – | – | – | – |
| CC(CNC(=O)c1ccccc1)(CNC(=O)c1ccccc1)[N+](=O)[O-] | > 100 µM | > 100 µM | – | – | – | – | > 100 µM | > 100 µM | 73.3 µM | > 100 µM | > 100 µM | > 100 µM | – | – | – | – | – | – | – | – |
| Oc1c(Cl)c(Cl)c(O)c(CCNc2nccs2)c1Cl | 23.4 µM | 41.1 µM | 40.7 µM | – | 33.3 µM | > 100 µM | 8.71 µM | 49.2 µM | 44.1 µM | 7.72 µM | 40.5 µM | – | – | – | – | – | – | – | – | – |
| CC(=O)Oc1ccc(Nn2c3ccccc3c3ccccc32)c(C)c1 | – | – | > 100 µM | – | > 100 µM | – | > 100 µM | > 100 µM | > 100 µM | 79.9 µM | > 100 µM | 58.5 µM | – | – | – | – | – | – | – | – |
| CCN(CC)C(=S)N/N=C/c1cc(OC)ccc1O | > 100 µM | > 100 µM | > 100 µM | 12.5 µM | > 100 µM | > 100 µM | 70.5 µM | 90.6 µM | > 100 µM | > 100 µM | 21.6 µM | – | – | – | – | – | – | – | – | – |
